The solubility is how much of the substance goes into solution per volume. One may read the IC50 as the concentration at which inhibition is half-maximal.

One data set is described as follows: Water solubility assay. The following applies: read-out: Water solubility, Content. It is filed as physicochemical. The text has this: The water solubility of the compounds of the present invention can be determined by methods known in the art and the result is shown in Table 3.
The subject of a further data set is Hep3B cells. The experiment in a line: MTT assay, antiproliferation on Hep3B cells. The conditions noted are these: for IC50: Homo sapiens, Hep3B cells, MTT; for anticancer activity compared with resveratrol and pterostilbene: Hep 3B and CAR cells, Table 1. It is filed as cell-based. The method, then:
(§1) Antiproliferations of compound 2-4 were determined by an improved MTT assay. The CAR cells were individually plated at a density of 2×10^4 cells/well onto 96-well plates and treated with Dimethyl sulfoxide (DMSO) alone (0.5% (v/v) in media served as a vehicle control) and various concentrations (0, 25, 50, 75 and 100 μM) of compound 2-4 for 24 and 48 hours. Following the above treatments, the supernatant was discarded before a 100 μL solution of MTT (500 μg/ml) was added to each well for 4 hours at 37 °C. After incubation, the medium was replaced by the addition of 200 μL DMSO to solubilize the violet formazan crystal produced from MTT. The absorbance of the dissolved formazan grained within the cells was measured at 570 nm by a microplate reader to calculate viability (data shown as % of control).
(§2) Please refer to Table 1. Hep3B cells and CAR cells were treated by different concentrations of the compounds of the invention for 48 and 72 hours, and the antiprolifieration effect of such compounds was evaluated using MTT assay. Data are presented as IC50 (μM), the concentration of 50% proliferation-inhibitory effect.
The anti-proliferative ability of compound 2-4 in hepatocellular carcinoma was evaluated in Hep3B cells using MTT assay. Hep3B cells were treated with various concentrations of compound 2-4 for 48 and 72 hours.
(In general: Tetrazolium assays rely on reduction of a dye to a coloured formazan, in cell work by metabolically active cells.)

The subject of the next data set is CAR cells. Description: MTT assay, antiproliferation on cisplatin-resistant head and neck squamous carcinoma (CAR) cells. It is filed as cell-based, human. The conditions noted are these: Homo sapiens, CAR cells, MTT. The procedure: The human head and neck carcinoma cell line CAL27 was obtained from American Tissue Culture Collection (ATCC). The cisplatin-resistant cell line CAR (CAL27-cisplatin resistance) was established by clonal selection of CAL27 using 10 cycles of 1 passage treatment with 10-80 μM of cisplatin (Sigma-Aldrich Corp. (St. Louis, Mo., USA) followed by a recovery period of another passage. CAR cells were cultivated in Dulbecco's modified Eagle's medium (DMEM) supplemented with 10% FBS, 100 μg/mL streptomycin, 100 U/mL penicillin G, 2 mM L-glutamine (Gibco by Life Technologies (Carlsbad, Calif., USA)) and 80 μM of cisplatin (Sigma-Aldrich Corp. (St. Louis, Mo., USA).
as §1, §2
MTT assay was utilized and CAR cells were treated with compound 2-4 in different concentration for 24, 48 and 72 hours. […] The IC50 after 72 hours of treatment was 50 μM.

The conditions of data set [1]: dose up to 3.0 g/kg/day; cited from earlier work.
Where [2] appears, read: 48 hours, read-out: Hep 3B (IC50 (μM)) 48 hours.
[3] abbreviates: 72 hours, read-out: Hep 3B (IC50 (μM)) 72 hours.
[4] abbreviates: 48 hours, read-out: CAR (IC50 (μM)) 48 hours.
Setting [5] is: 72 hours, read-out: CAR (IC50 (μM)) 72 hours.

≈ marks a conversion by molar mass, not a printed value. Read-outs that look alike come from different tables or passages of the source. Bounds are passed on as bounds.

As to `CC(CO)(CO)C(=O)Oc1ccc(/C=C/c2cc(O)cc(O)c2)cc1` [Compound 3-5], in the data set “Water solubility assay”, the solubility turned out to be 52.9 µg/mL (≈ 154 µM). Further, the IC50 stood at 144 µM with Hep3B cells (setting [2]), 47.8 µM in the data set with Hep3B cells (setting [3]), 169 µM in the data set with CAR cells (setting [4]) and 133 µM in the data set on CAR cells (setting [5]).
On to `CC(CO)(CO)C(=O)Oc1ccc(/C=C/c2cc(O)cc(OC(=O)C(C)(CO)CO)c2)cc1` [Compound 3-6, 3,4′-[2,2-Bis(hydroxymethyl)propanoxy]-resveratrol], for which the solubility in the data set “Water solubility assay” amounted to 136 µg/mL (≈ 295 µM). The “anticancer activity compared with resveratrol and pterostilbene” value with Hep3B cells was “more potent anticancer activity than resveratrol and pterostilbene”. The IC50 was 54.2 µM with Hep3B cells (setting [2]), 36.8 µM in the data set with Hep3B cells (setting [3]), 105 µM in the data set with CAR cells (setting [4]) and 113 µM in the data set with CAR cells (setting [5]).
Turning to `CC(CO)(CO)C(=O)Oc1ccc(/C=C/c2cc(OC(=O)C(C)(CO)CO)cc(OC(=O)C(C)(CO)CO)c2)cc1` [Compound 4-3, 3,5,4′-[2,2-Bis(hydroxymethyl)propanoxy]-resveratrol], the solubility in the data set “Water solubility assay” came to 372 µg/mL (≈ 646 µM). Moreover, the IC50 in the data set with Hep3B cells (setting [2]) worked out at 151 µM; in the data set with Hep3B cells (setting [3]) it was 95 µM; in the data set with CAR cells (setting [4]), 149 µM; in the data set on CAR cells (setting [5]) it was 124 µM.
The like results for `CC(CO)(CO)C(=O)Oc1cc(O)cc(/C=C/c2ccc(O)cc2)c1` [Compound 5-3] were, in that order, 410 µg/mL (≈ 1190 µM), 83.5 µM, 68.9 µM, 54.9 µM and 113 µM.
The like results for `CC(CO)(CO)C(=O)Oc1cc(/C=C/c2ccc(O)cc2)cc(OC(=O)C(C)(CO)CO)c1` [Compound 6-3, 3,5-[2,2-Bis(hydroxymethyl)propanoxy]-resveratrol] were, in that order, 455 µg/mL (≈ 988 µM), 137 µM, 55.3 µM, 91.4 µM and 77 µM.
Take `COc1ccc(/C=C/c2cc(OC)cc(OC(=O)C(C)(CO)CO)c2)cc1` [Compound 7-3, 3,4′methyl-5-[2,2-Bis(hydroxymethyl)propanoxy]-resveratrol]: the solubility in the data set “Water solubility assay” was 53.4 µg/mL (≈ 143 µM). The “anticancer activity compared with resveratrol and pterostilbene” value in the data set with Hep3B cells is “more potent anticancer activity than resveratrol and pterostilbene”. The 50% inhibitory concentration (IC50) with Hep3B cells (setting [2]) was determined as 70.8 µM; in the data set with Hep3B cells (setting [3]), 48.7 µM; in the data set on CAR cells (setting [4]) it was 64.2 µM; in the data set with CAR cells (setting [5]), 67.3 µM.
With `COc1cc(/C=C/c2ccc(OC(=O)C(C)(CO)CO)cc2)cc(OC(=O)C(C)(CO)CO)c1` [Compound 8-3, 3-methyl-5,4′-[2,2-Bis(hydroxymethyl)propanoxy]-resveratrol], the solubility in the data set “Water solubility assay” is more than 1000 µg/mL. Further, the IC50 in the data set with Hep3B cells (setting [2]) was 106 µM; in the data set with Hep3B cells (setting [3]) it was 66.5 µM; in the data set on CAR cells (setting [4]) it was 56.5 µM; in the data set with CAR cells (setting [5]), 59.8 µM.
`CC(=O)Oc1cc(/C=C/c2ccc(OC(=O)C(C)(CO)CO)cc2)cc(OC(C)=O)c1` [Compound 9-4, 3,5-acetyl-4′-[2,2-Bis(hydroxymethyl)propanoxy]-resveratrol]: the solubility in the data set “Water solubility assay” was 306 µg/mL (≈ 715 µM). For the same compound, the IC50 in the data set with Hep3B cells (setting [2]) amounted to 148 µM; in the data set on Hep3B cells (setting [3]) it was 62 µM; with CAR cells (setting [4]), 103 µM; in the data set with CAR cells (setting [5]), 116 µM.
The like results for `CC(=O)Oc1cc(/C=C/c2ccc(OC(=O)C(C)(CO)CO)cc2)cc(OC(=O)C(C)(CO)CO)c1` [Compound 10-4, 3-acetyl-5,4′-[2,2-Bis(hydroxymethyl)propanoxy]-resveratrol] were, in that order, more than 1000 µg/mL, more than 200 µM, more than 200 µM, 122 µM and 119 µM.
With `COc1cc(O)cc(/C=C/c2ccc(OC(=O)C(C)(CO)CO)cc2)c1` [Compound 11-3, 3-methyl-4′-[2,2-Bis(hydroxymethyl)propanoxy]-resveratrol], the solubility in the data set “Water solubility assay” was determined as 35.8 µg/mL (≈ 99.9 µM). In addition, the “anticancer activity compared with resveratrol and pterostilbene” value in the data set with Hep3B cells is “more potent anticancer activity than resveratrol and pterostilbene”. The IC50 stood at 88.9 µM with Hep3B cells (setting [2]), 33.2 µM with Hep3B cells (setting [3]), 67.3 µM in the data set on CAR cells (setting [4]) and 64 µM in the data set on CAR cells (setting [5]).
For the compound `COc1cc(/C=C/c2ccc(OC(=O)C(C)(CO)CO)cc2)cc(OC(C)=O)c1` [Compound 12-3, 5-acetyl-3-methyl-4′-[2,2-Bis(hydroxymethyl)propanoxy]-resveratrol], in “Water solubility assay”, the solubility amounted to 81.9 µg/mL (≈ 205 µM). For the same compound, the “anticancer activity compared with resveratrol and pterostilbene” value in the data set with Hep3B cells is “more potent anticancer activity than resveratrol and pterostilbene”. The 50% inhibitory concentration (IC50) in the data set on Hep3B cells (setting [2]) came out at 85.2 µM; with Hep3B cells (setting [3]) it was 36.8 µM; in the data set with CAR cells (setting [4]) it was 52 µM; in the data set with CAR cells (setting [5]), 50.3 µM.
Take `COc1ccc(/C=C/c2cc(OC(=O)C(C)(CO)CO)cc(OC(=O)C(C)(CO)CO)c2)cc1` [Compound 13-3, 3,5-[2,2-Bis(hydroxymethyl)propanoxy]-4′-methyl-resveratrol]: the solubility in the data set “Water solubility assay” came out at 337 µg/mL (≈ 710 µM). Also, the “anticancer activity compared with resveratrol and pterostilbene” value with Hep3B cells was “more potent anticancer activity than resveratrol and pterostilbene”. Moreover, the half-maximal inhibitory concentration (IC50) with Hep3B cells (setting [2]) was found to be 53.4 µM; in the data set on Hep3B cells (setting [3]), 39.1 µM; in the data set with CAR cells (setting [4]) it was 73.9 µM; in the data set with CAR cells (setting [5]), 70.8 µM.
As to `COc1cc(/C=C/c2ccc(OC(=O)C3OC(C)(C)OC3C3COC(C)(C)O3)cc2)cc(OC)c1` [Compound 14-5, Pterostilbene D-Ribonic Acid Diacetonide], in the data set “Water solubility assay”, the solubility is less than 10 µg/mL. The IC50 in the data set with Hep3B cells (setting [2]) is 94.7 µM; in the data set on Hep3B cells (setting [3]), 59.5 µM; with CAR cells (setting [4]) it was more than 200 µM; with CAR cells (setting [5]) it was more than 200 µM.
For the compound `COc1cc(/C=C/c2ccc(O)cc2)cc(OC)c1` [Pterostilbene, reference compound], in data set [1], the “28 days subchronic toxicity” value is “no significant adverse biochemical parameters and toxic effects were noted”. In addition, the solubility in the data set “Water solubility assay” came to 48 µg/mL (≈ 187 µM). Besides, the IC50 in the data set on Hep3B cells (setting [2]) was 75.3 µM; in the data set with Hep3B cells (setting [3]) it was 48.9 µM; in the data set with CAR cells (setting [4]), 100 µM; with CAR cells (setting [5]), 98.3 µM.
With `Oc1ccc(/C=C/c2cc(O)cc(O)c2)cc1` [Resveratrol, 3,5,4′-trihydroxy-trans-stilbene, reference compound], the solubility in “Water solubility assay” turned out to be 107 µg/mL (≈ 470 µM). Moreover, the 50% inhibitory concentration (IC50) was 96.4 µM with Hep3B cells (setting [2]), 51.6 µM in the data set with Hep3B cells (setting [3]), 153 µM with CAR cells (setting [4]) and 88.3 µM in the data set on CAR cells (setting [5]).

(Values after patent publication US9266813B2, “Stilbenoid compound as inhibitor for squamous carcinoma and hepatoma and uses thereof” (AnnCare Bio-Tech Center Inc., priority 2013, dated 2016).)
